Reference: PubChem BioAssay AID504343 (Broad Institute, 2011)
Inconclusive results are not listed. Calls of active or inactive are those of the source.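 How the source made its calls: active means fitted curve reaches 10% of positive control caspase signal at or below top valid tested dose; inconclusive means flat fit at 30 to 70% activity, or unreliable fit; inactive means the rest.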

Test system: not listed separately
Test: apoptosis induction in HMC1-8 cells – cell-based, caspase luminescence, dry powder, set 2, selectivity assay for Bcl2-A1 inhibitor project, dose response (AID 504343)
Settings: HMC1-8 Mcl1-dependent cells, caspase-Glo luminescence, 4 h; at 35 µM (top of the series)

SMILES	caspase activation
CCOCCCNc1c([N+](=O)[O-])c(=O)n(C)c2ccccc12	-2.94% (inactive)
CN1C(=O)C(C)(C)N(Cc2ccccc2)c2ccccc21	9.6% (inactive)
Cc1ccc(Nc2c([N+](=O)[O-])c(=O)oc3ccccc23)cc1	12.1% (inactive)
Cc1ccc(Sc2c([N+](=O)[O-])c(=O)n(C)c3ccccc23)cc1	0.553% (inactive)
Cn1c(=O)c([N+](=O)[O-])c(Nc2ccc(Cl)cc2)c2ccccc21	1.67% (inactive)
Cn1c(=O)c([N+](=O)[O-])c(Cl)c2ccccc21	-12.8% (inactive)
Cn1c(=O)c([N+](=O)[O-])c(Oc2ccccc2)c2ccccc21	2.58% (inactive)
Cc1ccc(Nc2c([N+](=O)[O-])c(=O)n(C)c3ccccc23)cc1	10.1% (inactive)

Test system: HMC1-8 Mcl1-dependent cells, caspase-Glo luminescence, 4 h
Test: as above
Settings: not given

SMILES	AC10
Cn1c(=O)c([N+](=O)[O-])c(-n2cnc3ccccc32)c2ccccc21	20 µM
Cc1ccc(Sc2c([N+](=O)[O-])cnc3ccccc23)cc1	25 µM
C/C1=C/C(=O)O[C@@H]2C[C@@H](CC[C@H](C)/C=C\CC1)O[C@@](O)(C1CSC(=O)N1)C2 (some centres not stated)	> 35 µM (inactive)
O=[N+]([O-])c1cnc2ccccc2c1Sc1ccccc1	25 µM
